The test system of this data set is Rattus norvegicus. Conditions: oral.
[1] abbreviates: subchronic, gavage, M, Sprague-Dawley, Clinical Observation: Soft stool + Urinalysis: pH decrease(trend)Phosphate crystal (grade, frequency) decrease + Histopathology: Stomach-….
[2] abbreviates: short-term, duration: 28 days, gavage, F, Sprague-Dawley, Clinical Observation: Salivation + Hematology: Hgb decrease, Hct decrease + Blood Chemistry: Bil increase, Bil increase(trend)gamma-GTP ….
[3] abbreviates: short-term, duration: 28 days, gavage, M, Sprague-Dawley, Clinical Observation: Salivation + Hematology: Hgb decrease, Hct decrease + Blood Chemistry: Bil increase, Bil increase(trend)gamma-GTP ….
Setting [4] is: subchronic, gavage, M, Sprague-Dawley, Deaths + Clinical Observation: Diarrhea SalivationSoft feces Decreased locomotor activity BradypneaIncomplete eyelid opening AnorexiaSoiled ….
The mark [5] stands for this setting: short-term, duration: 28 days, gavage, M, Sprague-Dawley, Clinical Observation: Yellow-orange urine Soft stool DiarrheaSalivation + Body Weight Changes: decrease + Food Consumption: decrease + ….

As for `ClCBr` [Bromochloromethane], the NOEL (subchronic, duration: 42 days, gavage, M, CD(SD), Absolute Organ Weight: Liver increase + Relative Organ Weight: Liver increase + Necropsy: Stomach-Dark red focus, glandular stomach + …) is 30 mg/kg-day. For the compound `COC(CCl)OC` [Ethane, 2-chloro-1,1-dimethoxy-], the NOEL (short-term, duration: 28 days, gavage, M/F, Blood Chemistry: GPT increase, ALP increase, T-Bil increase, IP decrease + Organ Weight: Liver increase, Spleen decrease, Kidney increase, …) was determined as 15 mg/kg-day.

One may read the NOAEL as the highest tested level that showed no adverse finding. Regarding `CCCCCCOCCOCCO` [2-[2-(Hexyloxy)ethoxy]ethanol], for the setting “subchronic, duration: 53 days, diet, M, SD(CD), Body Weight Changes: Mean body weight decrease + Food Consumption: decrease + Urinalysis: pH decrease + Relative Organ Weight: Liver …”, the NOAEL is 300 mg/kg-day. Regarding `O=C(O)c1cc(C(=O)O)c(C(=O)O)cc1C(=O)O` [Pyromellitic acid], under setting [1], the LOEL amounted to 100 mg/kg-day and the NOEL was < 100 mg/kg-day. As for `S=c1[nH]c2ccccc2[nH]1` [2-Mercaptobenzimidazole], the NOEL (short-term, duration: 28 days, gavage, M/F, Wistar, Body Weight Changes: decrease + Food Consumption: decrease + Hematology: Hct decrease, Plt decrease, WBC decrease, APTT increase + Blood …) was < 2 mg/kg-day. Consider `Nc1nc(=S)[nH][nH]1` [3-Amino-1,2,4-triazole-5-thiol], for which the NOEL (subchronic, gavage, M/F, Sprague-Dawley, Deaths + Clinical Observation: White turbid urine SalivationSoft stool + Body Weight Changes: decrease + Food Consumption: decrease + …) is 10 mg/kg-day. As to `CCC1CCCCC1` [Ethylcyclohexane], under setting [2], the LOEL was found to be 200 mg/kg-day and the NOEL came out at 40 mg/kg-day. For the same compound, under setting [3], the LOEL was determined as 200 mg/kg-day and the NOEL stood at 40 mg/kg-day. With `C[Si](C)(C)O` [Trimethylsilanol], for the setting “short-term, duration: 28 days, gavage, M/F, Wistar, Clinical Observation: Staggering gait + Body Weight Changes: Body weight gain decrease + Relative Organ Weight: Liver increase + …”, the NOAEL was determined as 250 mg/kg-day.

Take `CCc1cc(Cc2cc(CC)cc(C(C)(C)C)c2O)c(O)c(C(C)(C)C)c1` [2,2'-Methylenebis(ethyl-6-tert-butylphenol)]: under setting [4], the no-observed-adverse-effect level (NOAEL) was 30 mg/kg-day and the NOEL was < 30 mg/kg-day. Consider `COc1ccc([N+](=O)[O-])cc1N=Nc1c(O)c(C(=O)Nc2cccc([N+](=O)[O-])c2)cc2ccccc12` [C.I. Pigment Red 23], for which the NOEL (subchronic, duration: 13 weeks, diet, M/F, Fischer 344, Hematology: Hct decrease, Hgb decrease, RBC decrease + Blood Chemistry: LDH increase + Absolute Organ Weight: Liver + Relative Organ Weight…) is < 288 mg/kg-day. As for `O=C1c2ccccc2C(=O)N1SC(F)(Cl)Cl` [Fluorofolpet], for the setting “short-term, duration: 28 days, gavage, M/F, Wistar, Deaths + Clinical Observation: Nasal noise Diarrhea + Body Weight Changes: Weight gain decrease + Food Consumption: decrease + Water …”, the NOEL was < 20 mg/kg-day. For `BrC1CCC(Br)C(Br)CCC1Br` (centres undefined) [1,2,5,6-Tetrabromocyclooctane], the NOEL (subchronic, gavage, M, Sprague-Dawley, Food Consumption: decrease, R (recovery day3) + Blood Chemistry: TP increase, Alb increase + Absolute Organ Weight: Liver increase + …) is < 40 mg/kg-day. For `NNC(=O)CCCCC(=O)NN` [Hexanedihydrazide], the NOEL (subchronic, gavage, M, Sprague-Dawley, Clinical Observation: Emaciation R Incontinence of urine R Diarrhea R Loose stool R + Relative Organ Weight: Thymus increase, Kidney …) worked out at 85 mg/kg-day. For the compound `CCCCCCC[CH2][Sn]([Cl])([Cl])[CH2]CCCCCCC` [Dichloro(dioctyl)stannane], the no-observed-adverse-effect level (NOAEL) (subchronic, duration: 90 days, diet, M/F, Wistar, Body Weight Changes: Weight gain decrease + Food Consumption: decrease + Urinalysis: Crystals increase + Hematology: RBC decrease, HGB …) is > 0.96 mg/kg-day. With `Nc1cc([N+](=O)[O-])ccc1O` [2-Amino-4-nitrophenol], under setting [5], the no observed adverse effect level (NOAEL) was < 150 mg/kg-day and the NOEL is < 150 mg/kg-day. Besides, the NOEL (subchronic, duration: 13 weeks, gavage, M/F, Fischer 344, Deaths + Body Weight Changes: decrease + Absolute Organ Weight: Liver increase + Relative Organ Weight: Liver increase + Histopathology: …) was determined as 125 mg/kg-day. On to `c1cc(OCC2CO2)cc(OCC2CO2)c1` (centres undefined) [Diglycidyl resorcinol ether], for which the NOEL (subchronic, duration: 13 weeks, gavage, M/F, Fischer 344, Deaths + Body Weight Changes: decrease + Histopathology: Stomach/forestomach-Inflammation Stomach/forestomach-Basal cell hyperplasia Stomach…) was < 12.5 mg/kg-day.

With `COCCC(=O)OC` [Methyl 3-methoxypropionate], the NOEL (subchronic, duration: 42 days, gavage, M, Sprague-Dawley, Clinical Observation: Salivation + Food Consumption: decrease + Urinalysis: Volume increasep H decrease + Hematology: Mono increase + Blood …) was found to be 62.5 mg/kg-day.

Take `Oc1cccc2cccnc12` [8-Hydroxyquinoline]: the NOEL (subchronic, gavage, M, Sprague-Dawley, Clinical Observation: Salivation + Functional Observational Battery: Salivation + Body Weight Changes: Body weight gain decrease(tendency)…) is 100 mg/kg-day. Regarding `COC(=O)CCCC(=O)OC` [Dimethyl glutarate], the no observed adverse effect level (NOAEL) (subchronic, duration: 42 days, gavage, M, CD(SD), Urinalysis: pH decrease(trend) + Histopathology: Stomach-Hyperplasia, squamous, limiting ledge) came out at 300 mg/kg-day. As to `CN(C)c1ccc(C(c2ccccc2)c2ccc(N(C)C)cc2)cc1` [Leucomalachite green], the NOEL (subchronic, diet, M, Fischer 344, Body Weight Changes: decrease + Hematology: Hct decrease, Hgb decrease, RBC decrease, Ret increase + Blood Chemistry: Alb decrease, Cho …) was < 27.8 mg/kg-day.

Take `O=N[O-].[Na+]` [Sodium nitrite]: the NOEL runs as follows: (chronic, duration: 14 weeks, water, F, Fischer 344, Deaths + Clinical Observation: Brown discoloration in eyes Cyanosis Hypoactive Alopecia + Body Weight Changes: decrease + Water Consumption…) < 40 mg/kg-day; (chronic, duration: 14 weeks, water, M/F, Fischer 344, Deaths + Clinical Observation: Brown discoloration in eyes Cyanosis Hypoactive Alopecia + Body Weight Changes: decrease + Water Consumption…) < 83.6 mg/kg-day. On to `CN(C)c1cccc(C(=O)O)c1` [Benzoic acid, 3-(dimethylamino)-], for which, where the note is “subchronic, gavage, M, Sprague-Dawley, Clinical Observation: Salivation + Blood Chemistry: Bil increase, Cl decrease + Relative Organ Weight: Heart increase”, the NOEL turned out to be 200 mg/kg-day. As to `O=[N+]([O-])/N=C1\NCCN1Cc1ccc(Cl)nc1` [Imidacloprid], for the setting “chronic, duration: 96 days, gavage, M/F, Body Weight Changes: Weight gain decrease + Hematology: WBC decrease, QT increase + Blood Chemistry: BUN increase, CL increase, IP decrease…”, the NOEL was < 150 ppm.

Consider `C1=Cc2cccc3cccc1c23` [Acenaphthylene], for which the NOEL (short-term, duration: 28 days, gavage, M/F, Crl:CD(SD), Deaths + Clinical Observation: Salivation, Rough coat, Wasting, Rearing cunut decrease + Functional Observational Battery: Forearm strength…) was determined as 4 mg/kg-day.

In the case of `Cc1cc(S(=O)(=O)[O-])c(N)cc1Cl.[Na+]`, the NOEL (subchronic, gavage, M, Sprague-Dawley, Food Consumption: increase + Urinalysis: pH decrease + Absolute Organ Weight: Kidney increase + Relative Organ Weight: Kidney increase) was found to be 300 mg/kg-day.

In the case of `CC(C)CC(C)(C#N)N=NC(C)(C#N)CC(C)C` (centres undefined) [2,2'-Azobis[2,4-dimethylvaleronitrile]], the NOEL (subchronic, gavage, M, Sprague-Dawley, Clinical Observation: Salivation + Blood Chemistry: gamma- GTP increase, TG decrease + Absolute Organ Weight: Liver increase, R + Relative …) turned out to be 10 mg/kg-day. `Oc1ccc(Cl)cc1Cc1ccccc1` [Clorophene]: the NOEL (subchronic, duration: 13 weeks, gavage, M/F, Fischer 344, Deaths + Clinical Observation: Red-yellow staining of urogenital region hair coat Alopecia of head Brown discoloration of hair coat around …) is < 30 mg/kg-day. With `CCc1ccccc1N` [2-Ethylaniline], the NOEL (subchronic, duration: 42 days, gavage, M, CD(SD), Hematology: RBC decrease, HGB decrease, MCV increase, MCH increase, MCHC decrease, RET increase + Blood Chemistry: Alb increase A/G …) stood at 3 mg/kg-day. As to `O=C(c1ccc(Cl)cc1)c1ccccc1Cl` [2,4'-Dichlorobenzophenone], where the note is “subchronic, gavage, M, Sprague-Dawley, Clinical Observation: Salivation (transient) + Functional Observational Battery: Salivation + Body Weight Changes: Gain decrease(trend) + …”, the NOEL was determined as 40 mg/kg-day. For `CCCCCl` [1-Chlorobutane], the NOEL (subchronic, duration: 13 weeks, gavage, M/F, Fischer 344, Deaths + Clinical Observation: Convulsion + Body Weight Changes: decrease + Histopathology: Spleen-Extramedullary hematopoiesis) is 60 mg/kg-day. On to `O.O.[Ba+2].[Cl-].[Cl-]` [Barium chloride dihydrate], for which the NOEL by setting is: (subchronic, duration: 13 weeks, water, F, Fischer 344, Deaths + Body Weight Changes: decrease + Water Consumption: decrease + Blood Chemistry: Pi increase + Absolute Organ Weight: Kidney increase…) 10 mg/kg-day; (subchronic, duration: 13 weeks, water, M/F, Fischer 344, Deaths + Body Weight Changes: decrease + Water Consumption: decrease + Blood Chemistry: Pi increase + Absolute Organ Weight: Kidney increase…) 19 mg/kg-day. With `Nc1ccc(Nc2ccccc2)cc1` [N-Phenyl-1,4-benzenediamine], the NOAEL (subchronic, duration: 90 days, diet, M, Wistar, Body Weight Changes: Body weight gain decrease + Food Consumption: decrease + Hematology: RBC decrease, HGB decrease, HCT decrease, MCV …) is 96 mg/kg-day. `CCCCCCCCCCC=O` [Undecanal] had a no observed adverse effect level (NOAEL) (subchronic, duration: 42 days, gavage, M, CD(SD), Clinical Observation: Salivation (transient)) of 1000 mg/kg-day. For `CC(I)C1OCC(CO)O1` (centres undefined) [Iodinated glycerol], the NOEL (subchronic, duration: 13 weeks, gavage, M/F, Fischer 344, Deaths + Body Weight Changes: decrease + Histopathology: Kidney-Tubular cell regeneration Kidney-Calcification) was 250 mg/kg-day. With `CC(=O)C=Cc1ccccc1` [Methyl styryl ketone], the NOEL (short-term, duration: 28 days, gavage, M/F, Sprague-Dawley, Functional Observational Battery: Salivation Rearing decrease + Urinalysis: KET increase + Blood Chemistry: T-Cho increase + Absolute Organ …) is 60 mg/kg-day. As to `CCCCC/C=C/C=C/C=O` [(E,E)-2,4-Decadienal], the NOAEL (chronic, duration: 14 weeks, gavage, M/F, Fischer 344, Clinical Observation: Lethargy + Body Weight Changes: Mean body weight decrease, Body weight gain decrease + Hematology: WBC decrease, SEG …) is 100 mg/kg-day. Turning to `O[Si](O)(C1CCCC1)C1CCCC1` [Dicyclopentylsilanediol], where the note is “subchronic, duration: 90 days, gavage, M, Sprague-Dawley, Clinical Observation: Ataxic gait SalivationDecreased locomotor activity + Blood Chemistry: TG decrease + Relative Organ Weight: Liver …”, the NOEL amounted to 40 mg/kg-day. As to `ClCc1ccc(-c2ccc(CCl)cc2)cc1` [4,4'-Bis(chloromethyl)-1,1'-biphenyl], under “subchronic, gavage, Sprague-Dawley”, the NOEL came out at 1000 mg/kg-day.

`CN1C(=O)C(O)N=C(c2ccccc2Cl)c2cc(Cl)ccc21` (centres undefined) [Lormetazepam]: the NOEL by setting is: (subchronic, duration: 35 days, gavage, F, Sprague-Dawley, Clinical Observation: Locomotor activity decrease, Drowsiness Aggression + Body Weight Changes: Body weight gain increase + Food Consumption…) 4 mg/kg-day; (subchronic, duration: 35 days, gavage, M, Sprague-Dawley, Clinical Observation: Locomotor activity decrease, Drowsiness Aggression + Body Weight Changes: Body weight gain increase + Food Consumption…) 20 mg/kg-day.

These data come from EPA's ToxValDB 9.5.
